Test [1] deals with pectic cell. The experiment in a line: Penetration and integration of saccharides.
Test [2] concerns Rice, Lantana, Cabbage. The experiment in a line: Yield with iron-Mac formulations versus component controls, all plant types. It is filed as in vivo. To be noted: for all plant types; 12 ppm Fe—Na2EDTA, 50 mM (NH4)2SO4. The protocol: (§1) Dilute the mixture in an appropriate volume of water. Mix until the compounds are dissolved. Spray the resulting formulation on the plant foliage (e.g. New Guinea Impatiens) so that the foliage glistens. Allow a day for leaf uptake. The following results are of growth promotion using iron-Mac formulations of the invention versus conventionally cultured controls and with identical quantities of each of the components as separate controls.

The test system of test [3] is Lantana. As to the kind of experiment: Growth promotion with iron-Mac formulations versus component controls. The format is in vivo. To be noted: 12 ppm iron-Mac, 12 ppm Fe—Na2EDTA, 50 mM (NH4)2SO4. The protocol: as §1
The test system of test [4] is Rice. Described as above. It is filed as in vivo. To be noted: 12 ppm iron-Mac, 12 ppm Fe—Na2EDTA, 50 mM (NH4)2SO4. The protocol:
as §1

Test [5] concerns Cabbage. Described as above. Conditions: 12 ppm iron-Mac, 12 ppm Fe—Na2EDTA, 50 mM (NH4)2SO4. The format is in vivo. The procedure:
as §1

The subject of test [6] is weeds. As to the kind of experiment: Weed kill by tank-mixes of saccharides, herbicide and ammonium sulfate. Conditions: 1 lb/acre glyphosate; additive 1:1 methyl glucosides to organic ammonium sulfates. The format is in vivo. From the text:
The inherent benefit of the reduction of productivity observed by surface coatings was exploited by utilizing their weakening effects as additives to enhance weed kill of pesticides. In sets of replicated trials, weeds were given tank-mixes with saccharides, herbicides, and ammonium sulfate fertilizer. Perhaps the most widely used herbicide, N-phosphonomethylglycine (PO(OH)2CH2.2NHCH2COOH), is commonly referred to as glyphosate, and is most abundantly found formulated as a water-soluble mono-isopropylamine (IPA) salt or sodium salt, hereinafter referred to as glyphosate, meant to include salts, thereof. The preferred formulation of the present invention is a blend of 4 lbs./acre to 5 lbs./acre glyphosate; 10 lbs./acre to 100 lbs./acre of 60% to 100% methyl glucosides in a 1:1 to 3:1 blend with ammonium sulfate; and with optional surfactant. After foliar application, inhibitory methods yielded approximately 50% to 85% improved response of weeds to herbicide and additives over positive controls. […] An additional benefit is the reversal of the weakening effect of treatments to plants that have been genetically engineered for herbicide resistance. After treatment with a tank mix of herbicide and Series 1 components, a Series 2 formulation of Ca^2+-chelators may be sprayed over a Series 1 treatment once the herbicide has killed its targeted weeds. […]

Regarding `CCCCCCCCCCCCCCO[C@@H]1O[C@H](CO)[C@@H](O[C@@H]2O[C@@H](CO)[C@H](O)[C@@H](O)[C@@H]2O)[C@H](O)[C@H]1O` (stereo in doubt) [tetradecylmaltoside], the penetration and integration entry in test [1] was “neither penetrate nor integrate”.
The compound `N.N.O=S(=O)(O)O` [(NH4)2SO4] displayed a yield reduction in test [2] of 5% reduction. In addition, the “Result (growth promotion)” value in test [3], in test [4] and in test [5] was “retarded” in each case.
In turn, `O=C(O)CNCP(=O)(O)O` [glyphosate, N-phosphonomethylglycine] gave a lethal dose response in test [6] of 100%.
As for `CC(=O)OC[C@H]1OC(OC(C)=O)[C@H](OC(C)=O)[C@@H](OC(C)=O)[C@H]1OC(C)=O` (some centres unmarked) [pentaace tylgalactopyranose], the penetration and integration result in test [1] is “neither penetrate nor integrate”.
Still for that read-out and setting: to `CC(=O)OC[C@H]1OC(OC(C)=O)[C@H](OC(C)=O)[C@@H](OC(C)=O)[C@@H]1OC(C)=O` (some centres unmarked) [pentaace tylglucopyranose] belongs “neither penetrate nor integrate”; to `CC(=O)OC[C@H]1OC(OC(C)=O)[C@@H](OC(C)=O)[C@@H](OC(C)=O)[C@@H]1OC(C)=O` (some centres unmarked) [pentaacetylmanno-pyranose], “neither penetrate nor integrate”; to `CC(=O)OC[C@H]1OC(Oc2ccccc2)[C@H](OC(C)=O)[C@@H](OC(C)=O)[C@@H]1OC(C)=O` (some centres unmarked) [phenyltetraacetylglucoside], “neither penetrate nor integrate”.
In test [2], Fe—Na2EDTA had a yield reduction of 5% reduction. The “Result (growth promotion)” value in test [3], in test [4] and in test [5] was “phytotoxic” each time.

The values above are taken from US9277697B2, “Compositions and methods for anti-transpiration in plants” (Innovation Hammer, LLC, priority 2004, dated 2016).
